Laboratory results: the NIST ThermoML archive (doi:10.1016/j.jct.2011.07.014)

Conditions: Liquid, Transpiration method

CC(=O)CCC(=O)O [4-oxopentanoic acid]
Conditions | vapor or sublimation pressure [kPa]
328.4 K | 0.00705
333.4 K | 0.01045
338.3 K | 0.01414
343.3 K | 0.02096
343.4 K | 0.02019
348.3 K | 0.02702
353.3 K | 0.0381
358.3 K | 0.05278
358.4 K | 0.05148
363.4 K | 0.07587
368.4 K | 0.101
373.4 K | 0.1349
